# From US12295951B2, “Compounds for use in a method of treating or preventing neurological and/or psychiatric disorders” (The Beckley Foundation, priority 2019, dated 2025)
# Experiments:
# Wistar Rats = assay: Novel object preference test in rats; assay type: in vivo, rat; details: for novel object preference: tested days after administration
# Protocol: The effects of the test compound on cognitive functions in rodents, in particular on memory and learning capacity, were investigated using a novel object preference test (sometimes called “novel object recognition task”) according to the experimental design depicted in FIG. 1A. More specifically, the novel object preference test was carried out as follows:
# Wistar Rats (outbred albino rats; Janvier Labs) sorted in different age groups, i.e. young (about 2 months), adult (about 9 months) and old (about 12-18 months), were administered with a saline solution (sodium chloride; 0.9% in water) or an aqueous solution of the test compound (LSD) by intraperitoneal injection (dose: 0.13 mg/kg).
# Before the injection the animals were housed with other animals, and after the injection of the saline or test compound the animals were housed individually. For ten hours following the administration, the animals were video-recorded and stayed alone during the acute effects of the test compound (or saline). Then, the animals were allowed to recover for a period of 3 or 9 days.
# After recovery, the animals were individually placed in an experiment arena (45×45×45 cm) once a day for 10 minutes over a period of 3 days (acclimatization session). The experiment arena as used herein typically includes two 3D printed bases located on the arena's floor 10 cm apart from each other, which are intended for mounting and fixing the test objects. However, said bases are empty during the acclimatization session.
# Then, the 3D printed bases were mounted with the same number (i.e. 2) and type of objects (identical LEGO™ pieces each having 12 edges and 12 vertices). The animals were individually placed in the experiment arena and trained for 7 minutes (training session). At the onset of the training session, the animals were individually placed facing the same wall of the arena, with their backs to the objects.
# The animals were removed from the arena and allowed to rest for 30 minutes. In the meantime, one of the objects was replaced by a new object having the same dimensions (height and base) as the previous object but a different shape (LEGO™ piece, 14 edges and 14 vertices). The animals were individually placed in the experiment arena for 3 minutes, and their preference for the novel object was evaluated by determining the time spent by the respective animals to explore the novel object (test session; FIG. 1B). At the onset of the test, the animals were individually placed facing the same wall of the arena, with their backs to the objects in a similar manner as during the training session.
# Old animals (rats) = assay: Enriched environment test (LSD plus cognitive training) with novel object preference in old rats; assay type: in vivo, rat; details: 0.13 mg/kg for 1 day or 3 consecutive days, then enriched environment 6 days (3 h per day)
# Protocol: The potential of the test compound combined with a cognitive training to rescue cognitive functions (called “enriched environment”) was evaluated in old animals according to the experimental design depicted in FIG. 3A. More specifically, the enriched environment test was carried out as follows:
# Old animal (about 12-18 months) were administered with saline (control group) or 0.13 mg/kg of test compound (LSD) for 1 day or 3 consecutive days, followed by exposure to an enriched environment for 6 consecutive days (3 hours each day). The enriched environment used herein typically consists of card boxes with 8 different rooms, wherein it is possible to find a variety of objects such as PVC tubes, toilet paper cardboard tubes or wood objects so as to stimulate the exploratory behavior. The animals were allowed to explore the enriched environment freely in groups of 3 to 5 animals. The effects of the test compound followed by the enriched environment were analyzed using one-way ANOVA, followed by Tukey HSD. The statistical analyses were performed using open source programming language R (version 3.6.0). The Mann-Whitney U test was used to compare the performance of old animals exposed to the enriched environment to that of old animals treated with saline and unexposed to the enriched environment.
# healthy human subjects = assay: Two-dimensional visuospatial location (memory) task in humans; assay type: in vivo; details: single oral dose 50 μg (one subject 67.5 μg), final recall about 24 h after learning
# Protocol: The effects of the test compound (LSD) on cognitive functions in humans—e.g. memory, learning capacity—were investigated by means of a two-dimensional (2D) visuospatial location task in accordance with the experimental design depicted in FIG. 4A. Specifically, the visuospatial location task was carried out as follows:
# Thirteen healthy human subjects learned the locations of 15 card pairs taking the test compound (LSD) or placebo in a two-run cross-over open-label design separated by two weeks. Seven subjects received 50 μg of test compound (orally) in the first run and placebo in the second run of the test. Six subjects received placebo in the first run and 50 μg of test compound (orally) in the second run of the test, except for one subject who received 67.5 μg of test compound in the second run. […]
# For the two experimental runs, two parallel versions (versions A and B, respectively) of the task (matrix), each showing different pictures (card pairs) at different locations, were used. […] About 24 hours after the learning session, final recall of the memory task was evaluated in a single recall run (recall task). […] The percentage of correctly recalled card locations at final recall relative to the number of correct card locations during the last immediate recall run at learning was determined as the memory performance. […]
# [1] = system: brain-derived neurotrophic factor (BDNF); assay: BDNF blood serum levels in healthy volunteers (ELISA); assay type: in vivo, human; details: for BDNF AUC levels compared to placebo / Peak BDNF levels: serum; for BDNF AUC levels compared to placebo: 0-6 h
# Protocol: The present double-blind placebo-controlled, within-subjects study aimed to investigate whether low doses (0, 5, 10, and 20 mcg) of LSD affect brain-derived neurotrophic factor (BDNF) blood levels in healthy volunteers. Blood samples were collected every two hours over a six-hour period, and BDNF levels were determined afterwards in blood serum.
# Twenty-four recreational psychedelic users were included in this study. Prior to inclusion, participants underwent medical screening including standard blood chemistry, hematology and urinalysis. Inclusion criteria were written informed consent; age 18-40 years; previous experience with a psychedelic drug, but not within the past three months; proficient knowledge of the English language; good physical health; free from psychotropic medication; BMI between 18-28 kg/m^2. Exclusion criteria were history of drug abuse or addiction as assessed using the DSM-IV criteria; history of psychiatric and neurological disorders; previous experience with serious side effects to psychedelic drugs (anxiety or panic attacks); cardiovascular abnormalities; hypertension; psychotic disorder in first-degree relatives; tobacco smoking (>20 cigarettes/day; excessive alcohol (>20 alcoholic consumptions/week); pregnancy or lactation.
# LSD doses used were 5, 10, and 20 mcg LSD base. LSD doses were dissolved in ethanol (96% Vol) resulting in a 1 mL volume and the placebo solution consisted of 1 mL of ethanol only. Test days were scheduled with a minimum of five days in between doses. A test day started at 9:00 AM with a screen for the presence of drugs of abuse in urine (THC/opiates/cocaine/amphetamines/methamphetamines), and alcohol in breath. Women were submitted to a urine pregnancy test. When tests were negative, a venous catheter was placed to draw blood and LSD or placebo was administered orally at 10:00 AM. The study was conducted according to the code of ethics on human experimentation established by the declaration of Helsinki (1964) and the World Medical Association (2013).
# Blood samples were taken at −0.5 h, +2 h, +4 h and +6 h relative to drug administration; samples were centrifuged, and serum was transferred into a clean tube and frozen subsequently at −20° C. until analysis. BDNF determination was assessed using an ELISA kit (Biosensis Mature BDNF Rapid ELISA kit: human, mouse, rat; Thebarton, Australia) as described by Akinomoto et al. in Behavioural Brain Research 2019, 359, 342-352.
# Therefore, only complete within-subjects (WS) cases entered analyses, using the statistical program SPSS (version 25.0). Non-parametric bootstrapped paired-samples t-tests with trapezoidal calculated AUC's as dependent variable were used for 5 mcg (N=10), 10 mcg (N=9), and 20 mcg (N=8), and corresponding placebo. Furthermore, LSD-placebo contrasts were examined using BDNF serum levels at 0 h, +2 h, +4 h and +6 h after dose administration using non-parametric bootstrapped paired samples t-tests. Lastly, to examine time effects per dose, non-parametric bootstrapped repeated measures ANOVA (0 h, +2 h, +4 h, and +6 h) was used, with subsequent non-parametric bootstrapped paired samples t-tests.
smiles,measurement,setting,value
"CCN(CC)C(=O)[C@@H]1C=C2c3cccc4[nH]cc(c34)C[C@H]2N(C)C1 [LSD, (D)-lysergic acid diethylamide]",novel object preference,"Wistar Rats; adult rats (about 9 months), 0.13 mg/kg i.p., saline baseline about 40%",about 60%
same,novel object preference (effect vs saline),"Wistar Rats; adult rats, FIG. 2",significantly increased
same,novel object preference (effect vs saline),"Wistar Rats; old rats (about 12-18 months), 0.13 mg/kg i.p.",not significant
same,novel object preference,"Wistar Rats; young rats (about 2 months), 0.13 mg/kg i.p., saline baseline about 60%",about 80%
same,novel object preference (effect vs saline),"Wistar Rats; young rats, FIG. 2",significantly increased
same,cognitive functions / novel object preference vs control group,Old animals (rats),significant enhancement
same,cognitive functions / novel object preference vs control group,Old animals (rats); listed as test compound,significant increase
same,performance in the 2D visuospatial location task vs placebo,healthy human subjects,significantly improved
same,performance in the 2D visuospatial location task vs placebo,healthy human subjects; listed as test compound,significantly increased
same,BDNF AUC levels compared to placebo,"[1]; 5 mcg LSD oral, Z=−2.29, p=0.02",significantly increased
same,Peak BDNF levels,"[1]; 5 mcg LSD, peak at four hours after administration",8.95 ng/mL
same,BDNF AUC levels compared to placebo,"[1]; 10 mcg LSD oral, Z=−2.67, p<0.01",significantly increased
same,Peak BDNF levels,"[1]; 10 mcg LSD, peak at six hours after administration",8.28 ng/mL
same,BDNF AUC levels compared to placebo,"[1]; 20 mcg LSD oral, Z=−2.52, p<0.01",significantly increased
same,BDNF levels compared to placebo,"[1]; +4 h after 5 mcg LSD, Z=−2.80, p<0.01",higher
same,BDNF levels compared to placebo,"[1]; +4 h after 10 mcg LSD, Z=−1.95, p=0.05",higher
same,BDNF levels compared to placebo,"[1]; +6 h after 5 mcg LSD, Z=−2.29, p<0.01",higher
same,BDNF levels compared to placebo,"[1]; +6 h after 20 mcg LSD, Z=−2.52, p=0.01",higher
